Assay results from US20220089575A1, “FARNESOID X RECEPTOR AGONISTS AND USES THEREOF” (Metacrine, Inc., priority 2017, published 2022).

Target: T1, hFXR (Homo sapiens, UniProt Q96RI1)
T1 construct: expressed in transfected cells; host or cells: CV-1 cells
T1 sequence (Q96RI1 1-486): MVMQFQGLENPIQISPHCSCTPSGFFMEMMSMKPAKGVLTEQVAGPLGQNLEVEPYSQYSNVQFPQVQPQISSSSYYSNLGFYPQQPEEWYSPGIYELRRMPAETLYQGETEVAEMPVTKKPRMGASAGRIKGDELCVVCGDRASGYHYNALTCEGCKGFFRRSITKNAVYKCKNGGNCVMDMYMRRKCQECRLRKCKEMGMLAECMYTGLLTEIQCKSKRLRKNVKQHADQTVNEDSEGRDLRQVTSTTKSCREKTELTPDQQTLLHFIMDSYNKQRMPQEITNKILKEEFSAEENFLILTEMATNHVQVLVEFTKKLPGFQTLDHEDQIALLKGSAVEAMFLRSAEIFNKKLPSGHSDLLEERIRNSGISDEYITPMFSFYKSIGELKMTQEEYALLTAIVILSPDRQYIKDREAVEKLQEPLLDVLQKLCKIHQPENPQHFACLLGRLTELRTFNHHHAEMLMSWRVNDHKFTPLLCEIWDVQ
T1 sequence (P19793 1-462 partner): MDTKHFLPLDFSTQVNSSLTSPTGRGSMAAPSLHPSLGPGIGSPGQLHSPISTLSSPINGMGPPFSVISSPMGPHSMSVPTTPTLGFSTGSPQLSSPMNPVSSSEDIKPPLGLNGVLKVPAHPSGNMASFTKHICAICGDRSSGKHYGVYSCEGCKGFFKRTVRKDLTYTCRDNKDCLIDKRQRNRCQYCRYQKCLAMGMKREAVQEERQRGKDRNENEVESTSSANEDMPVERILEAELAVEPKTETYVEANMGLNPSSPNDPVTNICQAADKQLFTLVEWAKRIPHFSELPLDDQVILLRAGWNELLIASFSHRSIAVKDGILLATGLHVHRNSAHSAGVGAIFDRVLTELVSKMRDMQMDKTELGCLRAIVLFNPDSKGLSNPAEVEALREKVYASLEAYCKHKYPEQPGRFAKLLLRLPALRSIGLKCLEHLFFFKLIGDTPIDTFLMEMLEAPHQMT
Experiment: In Vitro FXR Assay (TK): TK-ECRE-luc reporter in transfected CV-1 cells
Type: cell-based
Conditions: 18 hrs, luminescence, maximum efficacy of <25% of the Fexarmine control classified as '+'
Summary of the method: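 Luciferase luminescence read-out from lysed CV-1 cells transiently co-expressing hFXR and hRXR with a TK-ECRE-luc reporter (pCMX-YFP co-transfected). Compound exposure lasted 18 h at 37 °C, 5% CO2, in medium containing charcoal super-stripped serum.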

SMILES	EC50
CCCC(=O)N[C@H]1CC[C@H](C(=O)N(C[C@H]2CC[C@H](c3ccc(OC)c(C)c3)CC2)c2cccc(-c3cnc(C4CC4)s3)c2)CC1 [Compound 25.16, trans-4-Butyramido-N-(3-(2-cyclopropylthiazol-5-yl)phenyl)-N-((trans-4-(4-methoxy-3-methylphenyl)cyclohexyl)methyl) cyclo hexanecarboxamide]	≤ 0.25 µM
CCCCC(=O)N[C@H]1CC[C@H](C(=O)N(C[C@H]2CC[C@H](c3ccc(OC)c(C)c3)CC2)c2cccc(-c3cnc(C4CC4)s3)c2)CC1 [Compound 25.17, trans-N-(3-(2-Cyclopropylthiazol-5-yl)phenyl)-N-((trans-4-(4-methoxy-3-methylphenyl)cyclohexyl)methyl)-4-pentanamidocyclohexanecarboxamide]	≤ 0.25 µM
COc1ccc([C@H]2CC[C@H](CN(c3cccc(-c4cnc(C5CC5)s4)c3)C(=O)[C@H]3CC[C@H](NC(=O)CC(C)C)CC3)CC2)cc1C [Compound 25.18, trans-N-(3-(2-Cyclopropylthiazol-5-yl)phenyl)-N-((trans-4-(4-methoxy-3-methylphenyl)cyclohexyl)methyl)-4-(3-methylbutanamido) cyclohexanecarboxamide]	≤ 0.25 µM
COC(=O)N[C@H]1CC[C@H](C(=O)N(C[C@H]2CC[C@H](c3ccc(OC)c(C)c3)CC2)c2cccc(-c3cnn(C4CC4)c3)c2)CC1 [Compound 26, Methyl (trans-4-((3-(1-cyclopropyl-1H-pyrazol-4-yl)phenyl)((trans-4-(4-methoxy-3-methylphenyl)cyclohexyl)methyl)carbamoyl)cyclohexyl)carbamate]	≤ 0.25 µM
COc1ccc([C@H]2CC[C@H](CN(c3cccc(-c4cnn(C5CC5)c4)c3)C(=O)[C@H]3CC[C@H](NC(C)=O)CC3)CC2)cc1C [Compound 26.01, trans-4-Acetamido-N-(3-(1-cyclopropyl-1H-pyrazol-4-yl)phenyl)-N-((trans-4-(4-methoxy-3-methylphenyl)cyclohexyl)methyl)cyclohexanecarboxamide]	≤ 0.25 µM
COc1ccc([C@H]2CC[C@H](CN(c3cccc(-c4cnn(C5CC5)c4)c3)C(=O)[C@H]3CC[C@H](NS(C)(=O)=O)CC3)CC2)cc1C [Compound 26.02, trans-N-(3-(1-Cyclopropyl-1H-pyrazol-4-yl)phenyl)-N-((trans-4-(4-methoxy-3-methylphenyl)cyclohexyl)methyl)-4-(methylsulfonamido) cyclohexanecarboxamide]	≤ 0.25 µM
COc1ccc([C@H]2CC[C@H](CN(c3cccc(-c4cnn(C5CC5)c4)c3)C(=O)[C@H]3CC[C@H](NC(=O)CO)CC3)CC2)cc1C [Compound 26.03, trans-N-(3-(1-Cyclopropyl-1H-pyrazol-4-yl)phenyl)-4-(2-hydroxyacetamido)-N-((trans-4-(4-methoxy-3-methylphenyl)cyclohexyl)methyl) cyclohexanecarboxamide]	≤ 0.25 µM
CNC(=O)OCC(=O)N[C@H]1CC[C@H](C(=O)N(C[C@H]2CC[C@H](c3ccc(OC)c(C)c3)CC2)c2cccc(-c3cnn(C4CC4)c3)c2)CC1 [Compound 26.04, 2-((trans-4-((3-(1-Cyclopropyl-1H-pyrazol-4-yl)phenyl)((trans-4-(4-methoxy-3-methylphenyl)cyclohexyl)methyl)carbamoyl)cyclohexyl)amino)-2-oxoethyl methylcarbamate]	≤ 0.25 µM
COc1ccc([C@H]2CC[C@H](CN(c3cccc(-c4cnn(C5CC5)c4)c3)C(=O)[C@H]3CC[C@H](NC(=O)OCCO)CC3)CC2)cc1C [Compound 26.05, 2-Hydroxyethyl (trans-4-((3-(1-cyclopropyl-1H-pyrazol-4-yl)phenyl)((trans-4-(4-methoxy-3-methylphenyl)cyclohexyl)methyl)carbamoyl)cyclohexyl)carbamate]	≤ 0.25 µM
COc1ccc([C@H]2CC[C@H](CN(c3cccc(-c4cnn(C5CC5)c4)c3)C(=O)[C@H]3CC[C@H](NC(=O)[C@H]4CC[C@H](O)CC4)CC3)CC2)cc1C [Compound 26.06, trans-N-(3-(1-Cyclopropyl-1H-pyrazol-4-yl)phenyl)-4-(trans-4-hydroxycyclohexanecarboxamido)-N-((trans-4-(4-methoxy-3-methylphenyl)cyclohexyl)methyl) cyclohexanecarboxamide]	≤ 0.25 µM
COc1ccc(C23CCC(CN(c4cccc(-c5cnn(C6CC6)c5)c4)C(=O)[C@H]4CC[C@H](NC(C)=O)CC4)(CC2)CC3)cc1C [Compound 26.07, trans-4-Acetamido-N-(3-(1-cyclopropyl-1H-pyrazol-4-yl)phenyl)-N-((4-(4-methoxy-3-methylphenyl)bicyclo[2.2.2]octan-1-yl)methyl)cyclohexanecarboxamide]	≤ 0.25 µM
COc1ccc(C23CCC(CN(c4cccc(-c5cnn(C6CC6)c5)c4)C(=O)[C@H]4CC[C@H](NC(=O)COC(C)=O)CC4)(CC2)CC3)cc1C [Compound 26.08, 2-((4-((3-(1-Cyclopropyl-1H-pyrazol-4-yl)phenyl)((4-(4-methoxy-3-methylphenyl)bicyclo[2.2.2]octan-1-yl)methyl)carbamoyl)cyclohexyl)amino)-2-oxoethyl trans-acetate]	≤ 0.25 µM
COc1ccc(C23CCC(CN(c4cccc(-c5cnn(C6CC6)c5)c4)C(=O)[C@H]4CC[C@H](NC(=O)CO)CC4)(CC2)CC3)cc1C [Compound 26.09, trans-N-(3-(1-Cyclopropyl-1H-pyrazol-4-yl)phenyl)-4-(2-hydroxyacetamido)-N-((4-(4-methoxy-3-methylphenyl)bicyclo[2.2.2]octan-1-yl)methyl)cyclohexanecarboxamide]	≤ 0.25 µM

The next lines start with the values.

EC50	SMILES
≤ 0.25 µM	COc1ccc([C@H]2CC[C@H](CN(c3cccc(-c4cnc(C5CC5)s4)c3)C(=O)[C@H]3CC[C@H](NC(C)=O)CC3)CC2)cc1C [Compound 25.09, trans-4-Acetamido-N-(3-(2-cyclopropylthiazol-5-yl)phenyl)-N-((trans-4-(4-methoxy-3-methylphenyl)cyclohexyl)methyl) cyclohexanecarboxamide]
≤ 0.25 µM	COc1ccc([C@H]2CC[C@H](CN(c3cccc(-c4cnc(C5CC5)s4)c3)C(=O)[C@H]3CC[C@H](N(C)C(C)=O)CC3)CC2)cc1C [Compound 25.10, trans-N-(3-(2-Cyclopropylthiazol-5-yl)phenyl)-N-((trans-4-(4-methoxy-3-methylphenyl)cyclohexyl)methyl)-4-(N-methylacetamido) cyclohexanecarboxamide]
≤ 0.25 µM	COc1ccc([C@H]2CC[C@H](CN(c3cccc(-c4cnc(C5CC5)s4)c3)C(=O)[C@H]3CC[C@H](NS(C)(=O)=O)CC3)CC2)cc1C [Compound 25.11, trans-N-(3-(2-Cyclopropylthiazol-5-yl)phenyl)-N-((trans-4-(4-methoxy-3-methylphenyl)cyclohexyl)methyl)-4-(methylsulfonamido) cyclohexanecarboxamide]
≤ 0.25 µM	COCC(=O)N[C@H]1CC[C@H](C(=O)N(C[C@H]2CC[C@H](c3ccc(OC)c(C)c3)CC2)c2cccc(-c3cnc(C4CC4)s3)c2)CC1 [Compound 25.12, trans-N-(3-(2-Cyclopropylthiazol-5-yl)phenyl)-N-((trans-4-(4-methoxy-3-methylphenyl)cyclohexyl)methyl)-4-(2-methoxyacetamido) cyclohexanecarboxamide]
≤ 0.25 µM	COc1ccc([C@H]2CC[C@H](CN(c3cccc(-c4cnc(C5CC5)s4)c3)C(=O)[C@H]3CC[C@H](NC(=O)COC(C)=O)CC3)CC2)cc1C [Compound 25.13, 2-((trans-4-((3-(2-Cyclopropylthiazol-5-yl)phenyl)((trans-4-(4-methoxy-3-methylphenyl)cyclohexyl)methyl)carbamoyl)cyclohexyl)amino)-2-oxoethyl acetate]
≤ 0.25 µM	COc1ccc([C@H]2CC[C@H](CN(c3cccc(-c4cnc(C5CC5)s4)c3)C(=O)[C@H]3CC[C@H](NC(=O)CO)CC3)CC2)cc1C [Compound 25.14, trans-N-(3-(2-Cyclopropylthiazol-5-yl)phenyl)-4-(2-hydroxyacetamido)-N-((trans-4-(4-methoxy-3-methylphenyl)cyclohexyl)methyl) cyclohexanecarboxamide]
≤ 0.25 µM	CNC(=O)OCC(=O)N[C@H]1CC[C@H](C(=O)N(C[C@H]2CC[C@H](c3ccc(OC)c(C)c3)CC2)c2cccc(-c3cnc(C4CC4)s3)c2)CC1 [Compound 25.15, 2-((trans-4-((3-(2-Cyclopropylthiazol-5-yl)phenyl)((trans-4-(4-methoxy-3-methylphenyl)cyclohexyl)methyl)carbamoyl)cyclohexyl)amino)-2-oxoethyl methylcarbamate]
